In patent publication US12528812B2 (Genentech, Inc., priority 2020, dated 2026):
Where two headings read alike, the source gives them in different places.

Legend:
[1] = target: Recombinant human JAK2 kinase domain protein (Residues 812-1132) (Homo sapiens, UniProt O60674); assay: JAK2 biochemical assay (LabChip mobility shift, Ki); settings: Biochem JAK2 Ki
[2] = target: T1, recombinant human JAK1 kinase domain protein (Residues 854-1154) (Homo sapiens, UniProt P23458); assay: JAK1 biochemical assay (LabChip mobility shift, Ki); settings: read-out: Biochem JAK1 Ki
T1 construct: human JAK1 kinase domain protein (Residues 854-1154); purchased Proteros Biostructures GmbH (Martinsried, Germany); host or cells: insect cells
T1 sequence (P23458 854-1154): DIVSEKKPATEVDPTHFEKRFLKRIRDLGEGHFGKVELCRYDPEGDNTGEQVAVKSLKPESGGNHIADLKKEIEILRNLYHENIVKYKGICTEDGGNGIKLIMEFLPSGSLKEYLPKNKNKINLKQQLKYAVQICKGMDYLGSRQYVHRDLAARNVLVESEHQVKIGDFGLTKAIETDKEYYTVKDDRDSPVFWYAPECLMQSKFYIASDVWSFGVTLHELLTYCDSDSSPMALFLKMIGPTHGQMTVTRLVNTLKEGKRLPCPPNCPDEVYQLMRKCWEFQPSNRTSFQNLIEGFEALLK

[3] = test system: IL-13-stimulated STAT6 phosphorylation in human lung bronchial epithelial BEAS-2B cell line; assay: P-STAT6 BEAS-2B + IL-13 cell assay; format: cell-based; settings: BEAS2B cells, IL13 stimulation, read-out: Cellular JAK1 PSTAT6 BEAS2B + IL13
Outline: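 BEAS-2B cells grown 48 h at 37 °C, pre-treated 1 h with compound (10-point 1:2 dilution curve), then stimulated 15 min with human recombinant IL-13 (250 ng/mL stock). Lysate P-STAT6 (Tyr641) read by MSD sandwich ELISA with total-STAT6 capture; IC50 from four-parameter logistic fit of control-normalised data.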

Recombinant human JAK2 kinase domain protein (Residues 812-1132), sequence (O60674 812-1132): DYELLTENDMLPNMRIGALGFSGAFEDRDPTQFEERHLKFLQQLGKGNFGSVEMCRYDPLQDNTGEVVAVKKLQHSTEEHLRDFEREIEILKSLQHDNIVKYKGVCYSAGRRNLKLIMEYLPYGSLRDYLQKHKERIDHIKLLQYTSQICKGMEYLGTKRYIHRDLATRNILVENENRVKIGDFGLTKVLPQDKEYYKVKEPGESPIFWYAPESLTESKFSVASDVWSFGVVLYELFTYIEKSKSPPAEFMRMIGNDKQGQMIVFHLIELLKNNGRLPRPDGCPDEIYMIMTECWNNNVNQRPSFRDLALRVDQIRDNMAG

Compound | Ki [1] [nM] | Ki [2] [nM] | IC50 ([3]; Homo sapiens, BEAS-2B) [nM] | IC50 [3] [nM]
Cn1cc(NC(=O)c2cnn3cccnc23)c(-c2cc(Oc3ccc(C4(CC#N)COC4)cc3)ccc2OC(F)F)n1 [Example 147] | 0.22 | 0.28 | 19 | 
Cn1cc(NC(=O)c2cnn3cccnc23)c(-c2cc(Oc3ccc(C4(CC#N)CNC4)cc3)ccc2OC(F)F)n1 [Example 148, N-[3-[5-[4-[3-(cyanomethyl)azetidin-3-yl]phenoxy]-2-(difluoromethoxy)phenyl]-1-methyl-pyrazol-4-yl]pyrazolo[1,5-a]pyrimidine-3-carboxamide] | 1.9 | 3.6 | 210 | 
Cn1cc(NC(=O)c2cnn3cccnc23)c(-c2cc(Oc3ccc(CC(=O)N4CCC4)cc3)ccc2OC(F)F)n1 [Example 149, N-[3-[5-[4-[2-(azetidin-1-yl)-2-oxo-ethyl]phenoxy]-2-(difluoromethoxy)phenyl]-1-methyl-pyrazol-4-yl]pyrazolo[1,5-a]pyrimidine-3-carboxamide] | 0.17 | 0.28 | 20 | 
Cn1cc(NC(=O)c2cnn3cccnc23)c(-c2cc(Oc3ccc4c(c3)CNCC4)ccc2OC(F)F)n1 [Example 150, N-[3-[2-(difluoromethoxy)-5-(1,2,3,4-tetrahydroisoquinolin-7-yloxy)phenyl]-1-methyl-pyrazol-4-yl]pyrazolo[1,5-a]pyrimidine-3-carboxamide] | 0.22 | 0.21 | 16 | 
Cc1n[nH]cc1Oc1ccc(OC(F)F)c(-c2nn(C)cc2NC(=O)c2cnn3cccnc23)c1 [Example 151, N-[3-[2-(difluoromethoxy)-5-[(3-methyl-1H-pyrazol-4-yl)oxy]phenyl]-1-methy1-pyrazol-4-yl]pyrazolo[1,5-a]pyrimidine-3-carboxamide] | 0.2 | 0.29 | 19 | 
Cc1c(Oc2ccc(OC(F)F)c(-c3nn(C)cc3NC(=O)c3cnn4cccnc34)c2)cnn1C [Example 152, N-[3-[2-(difluoromethoxy)-5-(1,5-dimethylpyrazol-4-yl)oxy-phenyl]-1-methyl-pyrazol-4-yl]pyrazol[1,5-a]pyrimidine-3-carboxamide] | 0.3 | 0.31 | 20 | 
Cc1nn(C)cc1Oc1ccc(OC(F)F)c(-c2nn(C)cc2NC(=O)c2cnn3cccnc23)c1 [Example 153, N-[3-[2-(difluoromethoxy)-5-(1,3-dimethylpyrazol-4-yl)oxy-phenyl]-1-methyl-pyrazol-4-yl]pyrazolo[1,5-a]pyrimidine-3-carboxamide] | 0.23 | 0.46 | 27 | 
Cc1nn(CCO)cc1Oc1ccc(OC(F)F)c(-c2nn(C)cc2NC(=O)c2cnn3cccnc23)c1 [Example 154, N-[3-[2-(difluoromethoxy)-5-[1-(2-hydroxyethyl)-3-methyl-pyrazol-4-yl]oxy-phenyl]-1-methyl-pyrazol-4-yl]pyrazolo[1,5-a]pyrimidine-3-carboxamide] | 0.29 | 0.57 | 37 | 
Cc1c(Oc2ccc(OC(F)F)c(-c3nn(C)cc3NC(=O)c3cnn4cccnc34)c2)cnn1CCO [Example 155, N-[3-[2-(difluoromethoxy)-5-[1-(2-hydroxyethyl)-5-methyl-pyrazol-4-yl]oxy-phenyl]-1-methyl-pyrazol-4-yl]pyrazolo[1,5-a]pyrimidine-3-carboxamide] | 0.21 | 0.31 | 25 | 
Cn1cc(NC(=O)c2cnn3cccnc23)c(-c2cc(Oc3ccc(CC(=O)N4CCOCC4)cc3)ccc2OC(F)F)n1 [Example 156, N-[3-[2-(difluoromethoxy)-5-[4-(2-morpholino-2-oxo-ethyl)phenoxy]phenyl]-1-methyl-pyrazol-4-yl]pyrazolo[1,5-a]pyrimidine-3-carboxamide] | 0.12 | 0.27 | 23 | 
O=C(Nc1cn(C2COC2)nc1-c1cc(Oc2ccc3c(c2)CNCC3)ccc1OC(F)F)c1cnn2cccnc12 [Example 157, N-[3-[2-(difluoromethoxy)-5-(1,2,3,4-tetrahydroisoquinolin-7-yloxy)phenyl]-1-(oxetan-3-yl)pyrazol-4-yl]pyrazolo[1,5-a]pyrimidine-3-carboxamide] | 0.28 | 0.31 | 28 | 
CN(C)C(=O)c1cncc(Oc2ccc(OC(F)F)c(-c3nn(C)cc3NC(=O)c3cnn4cccnc34)c2)c1 [Example 159, N-[3-[2-(difluoromethoxy)-5-[[5-(dimethylcarbamoyl)-3-pyridyl]oxy]phenyl]-1-methyl-pyrazol-4-yl]pyrazolo[1,5-a]pyrimidine-3-carboxamide] | 0.37 | 0.54 | 43 | 
Cn1cc(Oc2ccc(OC(F)F)c(-c3nn(CC(N)=O)cc3NC(=O)c3cnn4cccnc34)c2)cn1 [Example 174, N-[1-(2-amino-2-oxo-ethyl)-3-[2-(difluoromethoxy)-5-(1-methylpyrazol-4-yl)oxy-phenyl]pyrazol-4-yl]pyrazolo[1,5-a]pyrimidine-3-carboxamide] | 0.92 | 1.6 | 240 | 
Cn1cc(NC(=O)c2cnn3cccnc23)c(-c2cc(Oc3ccccn3)ccc2OC(F)F)n1 [Example 175, N-[3-[2-(difluoromethoxy)-5-(2-pyridyloxy)phenyl]-1-methyl-pyrazol-4-yl]pyrazolo[1,5-a]pyrimidine-3-carboxamide] | 0.57 | 1.1 | 68 | 
Cn1cc(NC(=O)c2cnn3cccnc23)c(-c2cc(Oc3cnn(C4CNCC4O)c3)ccc2OC(F)F)n1 (stereo not drawn) [Example 176, N-[3-[2-(difluoromethoxy)-5-[1-(4-hydroxypyrrolidin-3-yl)pyrazol-4-yl]oxy-phenyl]-1-methyl-pyrazol-4-yl]pyrazolo[1,5-a]pyrimidine-3-carboxamide] | 0.21 | 0.25 | 210 | 
Cn1cc(NC(=O)c2cnn3cccnc23)c(-c2cc(Oc3cnn(C4CNCC4O)c3)ccc2OC(F)F)n1 (stereo not drawn) [Example 177, N-[3-[2-(difluoromethoxy)-5-[1-(4-hydroxypyrrolidin-3-yl)pyrazol-4-yl]oxy-phenyl]-1-methyl-pyrazol-4-yl]pyrazolo[1,5-a]pyrimidine-3-carboxamide] | 0.34 | 0.57 |  | 330
Cn1cc(NC(=O)c2cnn3cccnc23)c(-c2cc(Oc3cnn(C4CCNCC4O)c3)ccc2OC(F)F)n1 (stereo not drawn) [Example 182, N-[3-[2-(difluoromethoxy)-5-[1-(3-hydroxy-4-piperidyl)pyrazol-4-yl]oxy-phenyl]-1-methyl-pyrazol-4-yl]pyrazolo[1,5-a]pyrimidine-3-carboxamide] | 0.43 | 0.65 | 160 | 
Cn1cc(NC(=O)c2cnn3cccnc23)c(-c2cc(Oc3cnn(C4CCNCC4O)c3)ccc2OC(F)F)n1 (stereo not drawn) [Example 183, N-[3-[2-(difluoromethoxy)-5-[1-(3-hydroxy-4-piperidyl)pyrazol-4-yl]oxy-phenyl]-1-methyl-pyrazol-4-yl]pyrazolo[1,5-a]pyrimidine-3-carboxamide] | 0.22 | 0.41 |  | 150
Cn1cc(NC(=O)c2cnn3cccnc23)c(-c2cc(Oc3cnn([C@H]4C[C@H](N)C4)c3)ccc2OC(F)F)n1 [Example 188, N-[3-[5-[1-(3-aminocyclobutyl)pyrazol-4-yl]oxy-2-(difluoromethoxy)phenyl]-1-methyl-pyrazol-4-yl]pyrazolo[1,5-a]pyrimidine-3-carboxamide] | 0.77 | 0.91 | 150 | 
